Measurements reported in PubChem BioAssay AID2744 (NMMLSC, 2010).
Active and inactive are the calls of the source.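 Rule for the calls: active = fitted half-maximal concentration for changing reporter fluorescence at or below a set limit; inactive = the rest.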

Target: Citrate synthase, peroxisomal (Saccharomyces cerevisiae (strain ATCC 204508 / S288c)) (UniProt P08679)
Assay: yeast TOR pathway CIT2-GFP reporter potency – flow cytometry, MLPCN hits, dose response (AID 2744)
Details: S. cerevisiae CIT2-GFP strain, 3 h, at 33 µM (top of the series)

Citrate synthase, peroxisomal (Saccharomyces cerevisiae (strain ATCC 204508 / S288c)), sequence (P08679 whole entry, looked up): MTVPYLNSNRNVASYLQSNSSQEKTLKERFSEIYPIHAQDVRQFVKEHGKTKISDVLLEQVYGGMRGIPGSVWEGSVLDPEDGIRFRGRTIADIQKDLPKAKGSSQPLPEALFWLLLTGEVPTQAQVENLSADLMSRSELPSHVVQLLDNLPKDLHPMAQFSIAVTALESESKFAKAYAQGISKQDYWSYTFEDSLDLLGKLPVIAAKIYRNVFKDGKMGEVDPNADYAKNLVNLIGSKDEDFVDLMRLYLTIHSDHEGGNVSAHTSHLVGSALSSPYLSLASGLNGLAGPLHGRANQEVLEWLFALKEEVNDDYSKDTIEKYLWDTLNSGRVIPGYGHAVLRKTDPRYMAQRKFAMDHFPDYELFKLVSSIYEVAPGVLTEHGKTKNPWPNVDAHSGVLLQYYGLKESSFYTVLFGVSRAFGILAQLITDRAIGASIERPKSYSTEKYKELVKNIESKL

Compound | GFP fluorescence, higher = induction
COc1cc(N2C(=O)C=CC2=O)c(OC)cc1Cl | inactive
CCOC(=O)c1ccc(N=Cc2nc(-c3ccccc3)oc2OC(C)=O)cc1 | inactive
O=C1Nc2ccc(Br)cc2/C1=C/C(=O)c1ccc2c(c1)OCO2 | inactive
O=[N+]([O-])c1cc(S(=O)(=O)C(F)(F)F)ccc1Sc1nc2ccccc2s1 | inactive
CNC(CC(=O)c1ccc([N+](=O)[O-])cc1)C(Cl)(Cl)Cl (stereo not drawn) | inactive
Oc1c(CN2CCN(c3ccccc3)CC2)cc(Br)c2cccnc12 | inactive
Cc1ccccc1N1C(=O)C(Cl)=C(N2CCN(c3ccccc3)CC2)C1=O | inactive
Cc1ccc(NN2C(=O)C=C(c3ccc(Cl)cc3)C2=O)cc1 | inactive
COc1cc(C=C2C(=O)c3ccccc3C2=O)cc(OC)c1OC | inactive
O=C(c1ccc(Cl)cc1)N1CCN(c2cccc3[nH]ccc23)CC1 | inactive
C#CCOc1c(Br)cc(/C=C2/C(=O)ON=C2C)cc1OC | inactive
Cc1ccc(N=c2ssnc2Cl)cc1 | inactive
Cc1c(Cc2ccccc2)c(NCCN(C)C)n2c(nc3ccccc32)c1C#N | inactive
Cc1ccc(/C=C2\C(=O)NC(=S)N(c3ccccc3F)C2=O)s1 | inactive
O=[N+]([O-])c1ccc(O)c(/C=N/Nc2ccccn2)c1 | inactive
O=c1[nH]c(-c2ccc(Cl)cc2)cs1 | inactive
Cc1cc(Br)c2c(c1)/C(=C/C(=O)c1cccs1)C(=O)N2 | inactive
O=C1C2C3C=CC(CO)(O3)C2C(=O)N1c1ccccc1-c1ccccc1 (stereo not drawn) | inactive
O=c1[nH]c(-c2ccccn2)nc(C(F)(F)F)c1Br | inactive
CC(=O)Oc1oc(-c2ccccc2)nc1C=Nc1ccccc1 | inactive
O=C1c2sc3nc4ccccc4n3c2C(=O)N1c1ccccc1Cl | inactive
O=C(Cc1ccc(Cl)cc1)NNC(=S)NC(=O)c1cccs1 | inactive

Compound | GFP fluorescence, higher = induction
COc1ccc2c(/C=C/c3cc[n+](C)cc3)c[nH]c2c1 | inactive
CC(=O)n1cc(C(C[N+](=O)[O-])SCCN)c2ccccc21 (stereo not drawn) | inactive
Cc1cc(C)c(OCC(=O)Nc2nc(-c3ccccn3)cs2)c(C)c1 | inactive
O=C1NC(=O)N(Cc2ccco2)C(=O)/C1=C/c1ccc(-c2cccc([N+](=O)[O-])c2)o1 | inactive
O=C(/C=C/c1cc(Br)ccc1O)c1ccco1 | inactive
CCOc1ccc(N2C(=O)C(Cl)=C(Nc3ccccc3O)C2=O)cc1 | inactive
CS(=O)(=O)c1nc(-c2ccccc2)cc(C(F)(F)F)n1 | inactive
O=C(Oc1ccnc2cc(Cl)ccc12)N1CCOCC1 | inactive
COc1ccc(N2C(=O)C(Cl)=C(NCc3ccccc3)C2=O)cc1 | inactive
O=C(Nc1ccc(N2CCOCC2)cc1)C1CCN(S(=O)(=O)c2ccc3c(c2)OCCO3)CC1 | inactive
Cc1ccc(/C=C2/C(=O)ON=C2c2ccccc2)o1 | inactive
CCCCc1ccc(NC(=O)CC(C)=O)cc1 | inactive
CC[C@]1(c2ccccc2C)ON(c2ccccc2C(F)(F)F)C1=O | inactive
c1ccc(-c2cccc(-c3ccccn3)n2)nc1 | inactive
O=C(c1ccc(Cl)c([N+](=O)[O-])c1)N1CCN(c2ccccc2)CC1 | inactive
Cc1c(N2C(=O)/C(=C\c3ccccc3O)SC2=S)c(=O)n(-c2ccccc2)n1C | inactive
CC(C)(C)c1cc(C(c2cccnc2)N2CCN(CCO)CC2)cc(C(C)(C)C)c1O (stereo not drawn) | inactive
Cc1c(C)c2ccc(Oc3ccc([N+](=O)[O-])cc3C(F)(F)F)c(C)c2oc1=O | inactive
Cc1cccc(Nc2nc(-c3ccccn3)cs2)n1 | inactive
CCCCNc1c2c3c(cccc3n(C)c1=O)C(=O)c1ccccc1-2 | inactive
COc1cc(/C=C2\C(=O)ON=C2c2ccccc2)cc(OC)c1OC | inactive
CC(C)(C)C1C/C(=C/c2ccccn2)C(=O)/C(=C/c2ccccn2)C1 (stereo not drawn) | inactive

Same assay, conditions: S. cerevisiae CIT2-GFP strain, flow cytometry fluorescence, 3 h

Compound | EC50
CNc1nc(N)c([N+](=O)[O-])c(Nc2cccc(F)c2)n1 | 4.36 µM
N/C(Cc1ccc(Cl)cc1)=N\OC(=O)c1cccc2ccccc12 | 1.35 µM
N/C(=N\OC(=O)c1ccccc1Cl)c1ccc(Cl)cc1 | 6.14 µM
CCCCC(=O)NNC(=S)NC(=O)c1ccc(C)cc1 | 3.39 µM
